Here are results for four molecules from patent US8574899B2, “Methods for augmentation collection of placental hematopoietic stem cells and uses thereof” (priority 2010, dated 2013).

Marks after values point to notes of the source that are not given here. Where only a bound is given, the exact number is not on record here.

One assay relates to human term placentas. Put plainly: Yield of TNC, CD34+CD45dim cells and CFU from placenta infused with cell-liberating compounds. In kind it is cell-based. To be noted: infusion in PBS+, incubated 3-8 hours at 37° C., mean, N = 5; for Yield of colony-forming unit cells (CFU) obtained from placenta related to cord blood unit from the same donor: Methocult 12-14 days. The source says: HSCs and HPCs of the current invention were collected from 30 human term placentas by use of different cell-liberating compounds. Following IRB approval and informed consent, human term placentas were obtained from healthy females following caesarian section. Freshly obtained human placentas, which had been subjected to a conventional cord blood recovery process by draining substantially all of the cord blood from the placenta were used. Cord blood was collected from umbilical cord using standard techniques. Placentas were first infused with an anticoagulant/vasodilator solution (Heparin 30 […] 0.05 mg/ml) at a temperature of 20° C. For infusion procedures, artery and vein of umbilical cord were further cannulated and connected to a reservoir. Pressure in the umbilical cord artery and vein was constantly measured using Baxter pressure transducers (Protocol Systems, Portland, Oreg.). Constant temperature of infusate was maintained using heat exchange unit connected to temperature-controlled water bath. Placentas was infused with 100 ml phosphate buffered saline with additives: heparin (10 […]-acetyl-cysteine (1 mM), gentamycin (0.05 mg/ml) (PBS+) (Experiment 1), or 100 ml PBS+ with 3 mg/L AMD3100 (Sigma, St. Louis, Mo.) (Experiment 2); or 100 ml PBS+ with 1 mg/ml BIO5192 (Experiment 3). BIO5192 was supplied by AnorMED (Vancouver, BC) as a sterile powder and reconstituted in pH 7.0 ethanol:propylene glycol:water (10:36:54). In Experiment 4 100 ml PBS+ with 1 mg/ml Trypsin and 0.1 mg/ml Collagenase I (Sigma, St. Louis, Mo.) was infused into the placental artery or vein. In Experiment 5 100 ml PBS+ with Etoposide (1 mM) was infused into placental vein. […] Following incubation, fluid with cells was drained out of placental vessels and umbilical vein was infused with 100 ml of PBS and later flushed out 4 times via the umbilical artery. Collected cell suspension was centrifuged for 10 min at 1000 rpm, cells at the bottom collected and reconstituted in 10 ml PBS with heparin for further analyses. The following analyses were performed on cord blood and cell suspensions obtained from placenta: number of total nucleated cells determined by flow cytometry, number of CD34^+ and CD34^+CD45^dim cells determined by immunostaining with antibodies to CD34 and CD45, flow cytometry performed using FACS Calibur flow cytometer (BD Biosciences) and FlowJo software. Amounts of colony-forming unit cells were determined by culturing cells for 12-14 days in Methocult® medium (Stem Cell Technologies, Vancouver, Canada) according to manufacturer's instruction. Data obtained from cells collected from placental circulation were normalized to same variables obtained by analyses of cord blood cells (cord blood unit) collected from the corresponding placenta and are presented as percent of cord blood unit.

The next assay relates to human placenta. To be noted: 6-8 hour vascular perfusion of placenta; cited from earlier work.
A further assay concerns the target CXCR4 (Homo sapiens, UniProt P61073). To be noted: in vivo; cited from earlier work.
The target in a further assay is α4β1 integrin (Homo sapiens, UniProt P05556+P13612). To be noted: unactivated and activated forms of α4β1 integrin; cited from earlier work.
The target of assay [1] is T1, α4-subunit of the α4β1 (VLA-4) and α4β7 integrins (Homo sapiens, UniProt P13612).
T1 construct: host or cells: MS patients (in vivo, endogenous protein)
Particulars: MS patients after anti-α4 integrin antibody administration; cited from earlier work.

Chain of CXCR4 (P61073 whole entry, species assumed): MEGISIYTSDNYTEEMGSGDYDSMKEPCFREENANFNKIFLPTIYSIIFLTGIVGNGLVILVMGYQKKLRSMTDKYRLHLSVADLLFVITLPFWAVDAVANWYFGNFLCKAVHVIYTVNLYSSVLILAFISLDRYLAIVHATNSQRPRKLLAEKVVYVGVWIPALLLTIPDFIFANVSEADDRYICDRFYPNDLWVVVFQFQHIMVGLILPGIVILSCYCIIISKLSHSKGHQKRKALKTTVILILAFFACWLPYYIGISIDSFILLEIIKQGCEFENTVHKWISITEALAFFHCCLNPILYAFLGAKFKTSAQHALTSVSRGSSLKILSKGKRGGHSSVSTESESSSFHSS

`c1cc(CN2CCCNCCNCCCNCC2)ccc1CN1CCCNCCNCCCNCC1` [AMD3100, 1,1′-[1,4-phenylene-bis(methylene)]-bis-1,4,8,11-tetraazacyclotetradecane]: in the assay with human term placentas, the “Yield of colony-forming unit cells (CFU) obtained from placenta related to cord blood unit from the same donor” value (“Yield of colony-forming unit cells” below) is 332* %, the “Yield of CD34+CD45dim cells obtained from placenta related to cord blood unit from the same donor” value (from here on “Yield of CD34+CD45dim cells obtained”) is 412* % and the “Yield of TNC obtained from placenta related to cord blood unit from the same donor” value (shortened to “Yield of TNC obtained”) worked out at 31%. Besides, the “Increase of yield of HSC from perfusate as compared to cord blood unit HSCs” value in the assay on human placenta is reported as “several-fold”. Further, the “Mobilization of hematopoietic stem cells from the bone marrow to the bloodstream” value at CXCR4 is on record as “strong inducer of mobilization of hematopoietic stem cells”.

For the molecule `Cc1ccccc1NC(=O)Nc1ccc(CC(=O)N(C)[C@@H](CC(C)C)C(=O)NCC[C@H](NC(=O)[C@@H]2CCCN2S(=O)(=O)c2cc(Cl)cc(Cl)c2)C(=O)O)cc1` [BIO5192], in the assay with human term placentas, the “Yield of colony-forming unit cells” value is 423* %, the “Yield of CD34+CD45dim cells obtained” value was 524* % and the “Yield of TNC obtained” value was 24%. Further, the dissociation constant (Kd) (usually the equilibrium constant for the complex coming apart) at α4β1 integrin was below 0.01 nM.

On to `COc1cc([C@@H]2c3cc4c(cc3[C@@H](O[C@@H]3O[C@@H]5CO[C@@H](C)O[C@H]5[C@H](O)[C@H]3O)[C@H]3COC(=O)[C@H]23)OCO4)cc(OC)c1O` [Etoposide], for which, in the assay with human term placentas, the “Yield of colony-forming unit cells” value is listed as 211* %, the “Yield of CD34+CD45dim cells obtained” value is given as 185* % and the “Yield of TNC obtained” value was determined as 18%.

Consider “natalizumab: recombinant humanized neutralizing IgG4 monoclonal antibody that binds the α4-subunit of α4β1 (VLA-4) and α4β7 integrins”, for which the “Circulating HSPCs” value in assay [1] is “rapid and sustained increase in circulating HSPCs”.
